What was measured:
Assay in all cases: CTG-3D luminescence at 96 h relative to day-0 seeding control (ratio to day 0); higher = more growth / less cytotoxicity; PDxO 3D drug screen, 96 h, CTG-3D normalised to day-0 seeding control.
[1] = tested on: HCI-027 (organoid from a triple-negative breast cancer xenograft)
[2] = tested on: HCI-017.E2 (organoid from an ER-positive breast cancer xenograft)
[3] = tested on: HCI-023 (organoid from a triple-negative breast cancer xenograft)
[4] = tested on: HCI-008 (organoid from a HER2-enriched breast cancer xenograft)
[5] = tested on: HCI-010 (organoid from a breast cancer xenograft)
[6] = tested on: HCI-015 (organoid from a triple-negative breast cancer xenograft)
[7] = tested on: MDA-MB-231

CCc1c2c(nc3ccc(O)cc13)-c1cc3c(c(=O)n1C2)COC(=O)[C@]3(O)CC [SN-38]
CTG-3D luminescence at 96 h
Details	12.5 pM	0.00025 µM	0.005 µM	0.1 µM	1 µM	10 µM	100 µM	625 fM
[1], days in culture: 176	1.94	1.79	1.19	0.371	0.104	0.0345	0.0407	1.74
[1], days in culture: 194	1.81	1.39	0.614	0.307	0.0805	0.0428	0.0357	1.66
[1], days in culture: 201	2.6	2.5	0.717	0.272	0.0912	0.0373	0.029	2.46
[2], days in culture: 85	2.43	2.66	1.7	2.32	1.23	0.584	0.428	2.19
[3], days in culture: 111	1.39	1.19	0.797	0.194	0.0332	0.0191	0.0103	1.53
[3], days in culture: 128	2.09	1.68	0.754	0.391	0.0587	0.0307	0.0252	1.9
[4], days in culture: 228	1.72	1.6	0.948	0.349	0.21	0.132	0.111	1.93
[4], days in culture: 244	1.28	1.83	1.31	0.575	0.202	0.12	0.119	2.23
[5], days in culture: 52	2.37	2.36	0.389	0.0916	0.0768	0.267	0.243	2.19
[5], days in culture: 65	1.69	1.69	0.379	0.115	0.0812	0.317	0.334	0.54
[5], days in culture: 103	3.57	3.27	0.516	0.116	0.145	0.599	0.576	2.96
[6], days in culture: 172	2.31	1.87	1.68	0.173	0.101	0.0365	0.0336	2.79
[6], days in culture: 191	1.52	1.32	0.538	0.0896	0.0635	0.0399	0.0305	1.5
[6], days in culture: 218	2.35	1.74	1.05	0.109	0.0491	0.0388	0.0388	1.97

CTG-3D luminescence at 96 h
Details	12.5 pM	0.00025 µM	0.005 µM	0.1 µM	1 µM	10 µM	100 µM	625 fM
[2]	1.58	1.73	1.5	1.44	1.16	0.47	0.407	1.77
[7]	4.45	4.3	3.73	2.38	1.55	0.665	0.568	4.4

CCN1CCN(Cc2ccc(Nc3ncc(F)c(-c4cc(F)c5nc(C)n(C(C)C)c5c4)n3)nc2)CC1 [abemaciclib]
CTG-3D luminescence at 96 h
Details	12.5 pM	0.00025 µM	0.005 µM	0.1 µM	1 µM	10 µM	100 µM	625 fM
[1], days in culture: 176	2.08	1.51	2.54	2.32	1.53	0.242	0.0171	1.82
[1], days in culture: 194	1.66	1.49	1.8	1.97	1.87	1.39	0.0205	1.89
[1], days in culture: 201	2.8	2.7	2.69	2.54	2.15	1.35	0.018	2.37
[2], days in culture: 85	2.84	2.45	2.5	2.52	2.03	1.81	0.0118	3.16
[3], days in culture: 111	1.62	1.22	1.3	1.11	0.658	0.377	0.00981	1.51
[3], days in culture: 128	1.77	1.494	1.47	1.52	0.984	1.15	0.0139	1.84
[4], days in culture: 228	1.42	1.63	1.38	1.89	1.86	1.53	0.0137	1.79
[4], days in culture: 244	1.57	2.05	1.87	2.13	2.12	2.51	0.0231	2.52
[5], days in culture: 52	1.92	2.34	2.3	2.47	1.99	0.77	0.0133	2.09
[5], days in culture: 65	1.68	1.83	2.02	1.78	1.2	0.0257	0.00729	1.65
[5], days in culture: 103	3.48	3.18	3.28	3.44	3.5	2.6	0.0301	2.98
[6], days in culture: 172	2.01	1.6	1.87	1.21	1.52	1.06	0.0103	1.19
[6], days in culture: 191	1.17	1.4	1.23	1.15	1.45	1.09	0.0126	1.07
[6], days in culture: 218	2.17	1.65	1.7	1.63	1.48	1.23	0.0151	1.79

CTG-3D luminescence at 96 h
Details	12.5 pM	0.00025 µM	0.005 µM	0.1 µM	1 µM	10 µM	100 µM	625 fM
[2]	1.858	1.97	2.083	2.11	2.01	1.5	0.00884	2.33
[7]	4.61	4.47	4.69	4.48	4.55	3.73	0.0487	4.67

C=CCn1c(=O)c2cnc(Nc3ccc(N4CCN(C)CC4)cc3)nc2n1-c1cccc(C(C)(C)O)n1 [adavosertib]
CTG-3D luminescence at 96 h
Details	12.5 pM	0.00025 µM	0.005 µM	0.1 µM	1 µM	10 µM	100 µM	625 fM
[1], days in culture: 176	1.72	1.45	2.67	1.21	0.185	0.0765	0.0542	2.5
[1], days in culture: 194	1.64	1.52	1.33	1.65	0.158	0.0827	0.0536	1.42
[1], days in culture: 201	1.68	1.69	2.08	2.23	0.149	0.0964	0.0691	1.7
[2], days in culture: 85	3.02	3.07	2.89	2.57	2.45	1.09	1.58	2.77
[3], days in culture: 111	1.63	1.12	1.18	1.1	0.554	0.112	0.0325	1.39
[3], days in culture: 128	1.68	1.92	1.34	1.47	0.441	0.148	0.06302	1.85
[4], days in culture: 228	2.01	1.96	1.71	1.89	0.689	0.46	0.251	1.88
[4], days in culture: 244	1.42	1.98	1.93	1.91	0.808	0.555	0.252	2.27
[5], days in culture: 52	2.37	2.26	2.59	1.87	1	0.21	0.0806	2.17
[5], days in culture: 65	1.57	1.67	1.73	1.64	0.816	0.276	0.126	1.61
[5], days in culture: 103	3.65	3.76	3.59	2.95	1.62	0.459	0.242	3.13
[6], days in culture: 172	2.15	2.15	2.3	1.04	1.39	0.498	0.139	2.33
[6], days in culture: 191	2.26	1.49	1.67	0.981	0.612	0.246	0.0546	1.6
[6], days in culture: 218	1.97	1.76	1.56	1.43	0.699	0.252	0.0554	1.82

CTG-3D luminescence at 96 h
Details	12.5 pM	0.00025 µM	0.005 µM	0.1 µM	1 µM	10 µM	100 µM	625 fM
[2]	1.84	2.24	2.2	2.13	1.78	1.28	1.51	2.15
[7]	4.36	4.34	4.48	4.31	3.06	1.05	1.27	4.41

CC[C@H](NC(=O)[C@H](C)NC)C(=O)N1C[C@@H](O)C[C@H]1Cc1c(-c2[nH]c3cc(F)ccc3c2C[C@@H]2C[C@H](O)CN2C(=O)[C@H](CC)NC(=O)[C@H](C)NC)[nH]c2cc(F)ccc12 [birinapant]
CTG-3D luminescence at 96 h
Details	12.5 pM	0.00025 µM	0.005 µM	0.1 µM	1 µM	10 µM	100 µM	625 fM
[1], days in culture: 176	1.24	1.19	1.69	1.22	1.62	1.08	0.00679	1.18
[1], days in culture: 194	1.58	1.02	0.983	0.99	1.14	1.31	0.129	1.53
[1], days in culture: 201	1.64	1.19	1.14	0.985	0.933	1.13	0.11	1.76
[2], days in culture: 85	3.2	2.88	2.45	2.38	2.5	1.82	1.64	2.6
[3], days in culture: 111	1.31	0.929	0.368	0.0512	0.0433	0.0326	0.0111	1.35
[3], days in culture: 128	1.21	1.13	0.23	0.0897	0.044	0.0472	0.006598	1.75
[4], days in culture: 228	1.3	1.73	0.611	0.11	0.147	0.206	0.162	1.43
[4], days in culture: 244	1.27	1.82	1.05	0.549	0.521	0.713	0.51	2.04
[5], days in culture: 52	2.04	2.47	2.12	2.26	1.6	1.52	1.05	2.18
[5], days in culture: 65	1.7	1.59	1.72	1.47	1.43	1.23	0.618	1.66
[5], days in culture: 103	3.3	3.66	3.43	2.74	2.62	2.1	0.973	2.9
[6], days in culture: 172	2.01	1.64	0.598	0.172	0.485	0.234	0.0277	1.3
[6], days in culture: 191	0.803	0.19	0.16	0.126	0.32	0.224	0.0253	0.41
[6], days in culture: 218	1.68	0.775	0.248	0.111	0.125	0.185	0.0267	1.8

CTG-3D luminescence at 96 h
Details	12.5 pM	0.00025 µM	0.005 µM	0.1 µM	1 µM	10 µM	100 µM	625 fM
[2]	1.76	2.26	2.2	2.01	2.21	2.12	1.51	2.35
[7]	4.36	4.2	4.35	1.96	2	2.03	2.41	4.39

NC1(C(=O)N[C@@H](CCO)c2ccc(Cl)cc2)CCN(c2nc[nH]c3nccc2-3)CC1 [capivasertib]
CTG-3D luminescence at 96 h
Details	12.5 pM	0.00025 µM	0.005 µM	0.1 µM	1 µM	10 µM	100 µM	625 fM
[1], days in culture: 176	2.31	1.3	2.32	1.05	1.12	0.758	0.0952	2.13
[1], days in culture: 194	1.58	1.48	1.43	1.57	1.36	1.2	0.0815	1.55
[1], days in culture: 201	1.67	1.8	1.88	2.17	1.71	0.976	0.0625	1.6
[2], days in culture: 85	2.33	2.6	2.77	2.3	1.44	0.794	0.118	2.69
[3], days in culture: 111	1.51	1.39	0.992	0.931	0.434	0.366	0.16	1.39
[3], days in culture: 128	1.4	1.63	1.43	1.22	0.571	0.658	0.277	1.75
[4], days in culture: 228	1.6	2.11	1.54	0.955	0.441	0.222	0.155	1.76
[4], days in culture: 244	1.6	1.98	1.87	1.34	0.546	0.415	0.392	2.08
[5], days in culture: 52	2.05	2.33	2.4	2.54	2.01	1.78	0.545	2.15
[5], days in culture: 65	1.57	1.77	1.93	1.6	1.47	1.18	0.287	1.58
[5], days in culture: 103	3.5	3.47	3.91	3.21	2.35	2.11	0.959	3.23
[6], days in culture: 172	2.34	2.2	2.33	1.49	1.2	0.92	0.424	2.15
[6], days in culture: 191	2.07	1.39	1.53	1.06	1.24	0.533	0.257	1.27
[6], days in culture: 218	1.47	1.49	1.11	1.59	0.974	0.878	0.315	1.71

CTG-3D luminescence at 96 h
Details	12.5 pM	0.00025 µM	0.005 µM	0.1 µM	1 µM	10 µM	100 µM	625 fM
[2]	1.91	2.1835	2.12	1.61	1.02	0.644	0.2237	2.12
[7]	4.33	4.28	4.42	4.28	4.07	3.88	2.39	4.44

— the supplement of paper PMC8882468
